A short description of data set [1]: Cell viability assay (AlamarBlue). The note with it: human, HepAD38 cells.
Data set [2] concerns the target T1, C-terminal truncated core protein (HBV core dimer, BODIPY-FL labelled) (UniProt P03146).
T1 construct: fused on or other part: One added cysteine at position 150, labelled with BODIPY-FL maleimide; The C-terminal arginine-rich domain is absent
In words: Biochemical capsid assembly assay (fluorescence quenching). As to the method: Biochemical Capsid Assembly Assay
The screening for assembly effector activity was done based on a fluorescence quenching assay published by Zlotnick et al. (2007). The C-terminal truncated core protein containing 149 amino acids of the N-terminal assembly domain fused to a unique cysteine residue at position 150 and was expressed in E. coli using the pET expression system (Merck Chemicals, Darmstadt). Purification of core dimer protein was performed using a sequence of size exclusion chromatography steps. In brief, the cell pellet from 1 L BL21 (DE3) Rosetta2 culture expressing the coding sequence of core protein cloned NdeI/XhoI into expression plasmid pET21b was treated for 1 h on ice with a native lysis buffer (Qproteome Bacterial Protein Prep Kit; Qiagen, Hilden). After a centrifugation step the supernatant was precipitated during 2 h stirring on ice with 0.23 g/ml of solid ammonium sulfate. Following further centrifugation the resulting pellet was resolved in buffer A (100 mM Tris, pH 7.5; 100 mM NaCl; 2 mM DTT) and was subsequently loaded onto a buffer A equilibrated CaptoCore 700 column (GE HealthCare, Frankfurt). The column flow through containing the assembled HBV capsid was dialyzed against buffer N (50 mM NaHCO3 pH 9.6; 5 mM DTT) before urea was added to a final concentration of 3M to dissociate the capsid into core dimers for 1.5 h on ice. The protein solution was then loaded onto a 1 L Sephacryl 5300 column. After elution with buffer N core dimer containing fractions were identified by SDS-PAGE and subsequently pooled and dialyzed against 50 mM HEPES pH 7.5; 5 mM DTT. To improve the assembly capacity of the purified core dimers a second round of assembly and disassembly starting with the addition of 5 M NaCl and including the size exclusion chromatography steps described above was performed. From the last chromatography step core dimer containing fractions were pooled and stored in aliquots at concentrations between 1.5 to 2.0 mg/ml at −80° C.
Immediately before labelling the core protein was reduced by adding freshly prepared DTT in a final concentration of 20 mM. After 40 min incubation on ice storage buffer and DTT was removed using a Sephadex G-25 column (GE HealthCare, Frankfurt) and 50 mM HEPES, pH 7.5. For labelling 1.6 mg/ml core protein was incubated at 4° C. and darkness overnight with BODIPY-FL maleimide (Invitrogen, Karlsruhe) in a final concentration of 1 mM. After labelling the free dye was removed by an additional desalting step using a Sephadex G-25 column. Labelled core dimers were stored in aliquots at 4° C. In the dimeric state the fluorescence signal of the labelled core protein is high and is quenched during the assembly of the core dimers to high molecular capsid structures. The screening assay was performed in black 384 well microtiter plates in a total assay volume of 10 μl using 50 mM HEPES pH 7.5 and 1.0 to 2.0 μM labelled core protein. Each screening compound was added in 8 different concentrations using a 0.5 log-unit serial dilution starting at a final concentration of 100 μM, 31.6 μM or 10 μM, In any case the DMSO concentration over the entire microtiter plate was 0.5%. The assembly reaction was started by the injection of NaCl to a final concentration of […] which induces the assembly process to approximately 25% of the maximal quenched signal. […] after starting the reaction the fluorescence signal was measured using a Clariostar plate reader (BMG Labtech, Ortenberg) with an excitation of 477 nm and an emission of 525 nm. As 100% and 0% assembly control HEPES buffer containing 2.5 M and 0 M NaCl was used. Experiments were performed thrice in triplicates. EC50 values were calculated by non-linear regression analysis using the Graph Pad Prism 6 software (GraphPad Software, La Jolla, USA).

In data set [3] the test system is HBV. Description: HBV replication assay: HBV DNA from the supernatants of HepAD38 cells. As to conditions: Hepatitis B virus, 144 h, HBV DNA in supernatant at day 6, read-out: Cell Activity. The class given is cell-based. As to the method: Determination of HBV DNA from the Supernatants of HepAD38 Cells
The anti-HBV activity was analysed in the stable transfected cell line HepAD38, which has been described to secrete high levels of HBV virion particles (Ladner et al., 1997). In brief, HepAD38 cells were cultured at 37° C. at 5% CO2 and 95% humidity in 200 μl maintenance medium, which was Dulbecco's modified Eagle's medium/Nutrient Mixture F-12 (Gibco, Karlsruhe), 10% fetal bovine serum (PAN Biotech Aidenbach) supplemented with 50 μg/ml penicillin/streptomycin (Gibco, Karlsruhe), 2 mM L-glutamine (PAN Biotech, Aidenbach), 400 μg/ml G418 (AppliChem, Darmstadt) and 0.3 μg/ml tetracycline. Cells were subcultured once a week in a 1:5 ratio, but were usually not passaged more than ten times. For the assay 60,000 cells were seeded in maintenance medium without any tetracycline into each well of a 96-well plate and treated with serial half-log dilutions of test compound. To minimize edge effects the outer 36 wells of the plate were not used but were filled with assay medium. On each assay plate six wells for the virus control (untreated HepAD38 cells) and six wells for the cell control (HepAD38 cells treated with 0.3 μg/ml tetracycline) were allocated, respectively. In addition, one plate set with reference inhibitors like BAY 41-4109, entecavir, and lamivudine instead of screening compounds were prepared in each experiment. In general, experiments were performed thrice in triplicates. At day 6 HBV DNA from 100 μl filtrated cell culture supernatant (AcroPrep Advance 96 Filter Plate, […] Supor membran, PALL GmbH, Dreieich) was automatically purified on the MagNa Pure LC instrument using the MagNA Pure 96 DNA and Viral NA Small Volume Kit (Roche Diagnostics, Mannheim) according to the instructions of the manufacturer. EC50 values were calculated from relative copy numbers of HBV DNA In brief, 5 μl of the 100 μl eluate containing HBV DNA were subjected to PCR LC480 Probes Master Kit (Roche) together with 1 μM antisense primer […], 0.5 μM sense primer […], 0.3 μM hybprobes […]-FL and LC640-[…]-PH (TIBMolBiol, Berlin) to a final volume of […]. The PCR was performed on the Light Cycler 480 real time system (Roche Diagnostics, Mannheim) using the following protocol: Pre-incubation for 1 min at 95° C., amplification: 40 cycles×(10 sec at 95° C., 50 sec at 60° C., 1 sec at 70° C.), cooling for 10 sec at 40° C. Viral load was quantitated against known standards using HBV plasmid DNA of pCH-9/3091 (Nassal et al., 1990, Cell 63: 1357-1363) and the LightCycler 480 SW 1.5 software (Roche Diagnostics, Mannheim) and EC50 values were calculated using non-linear regression with GraphPad Prism 6 (GraphPad Software Inc., La Jolla, USA).

By CC50 is commonly meant the concentration that lowers cell viability or growth by half. Higher therefore signals lower toxicity to the cells. The term IC50 denotes the midpoint of a concentration-inhibition curve.

Each structure is given as a SMILES string. Some results are limits rather than exact numbers.

T1 sequence (P03146 whole entry, the tested form may be a part): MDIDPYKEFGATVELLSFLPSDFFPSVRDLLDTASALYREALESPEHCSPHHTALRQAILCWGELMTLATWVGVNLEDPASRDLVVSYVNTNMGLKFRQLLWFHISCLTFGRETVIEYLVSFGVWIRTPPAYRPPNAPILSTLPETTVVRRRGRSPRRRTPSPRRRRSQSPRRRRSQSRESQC

`CC(C)(C)NC(=O)C(=O)N1CCN(C(=O)c2cc3ccccc3[nH]2)CC1` [Example 52, N-tert-butyl-2-[4-(1H-indole-2-carbonyl)piperazin-1-yl]-2-oxoacetamide] displayed a CC50 at 6 days in data set [1] above 100 µM. Moreover, the IC50 in data set [2] is below 5 µM. Moreover, the EC50 in data set [3] is below 1 µM.

Turning to `CC(C)(O)CNC(=O)C(=O)N1CCN(C(=O)c2cc3ccccc3[nH]2)CC1` [Example 32, 2-(4-(1H-indole-2-carbonyl)piperazin-1-yl)-N-(2-hydroxy-2-methylpropyl)-2-oxoacetamide], the CC50 at 6 days in data set [1] was above 100 µM. Besides, in data set [2], the IC50 was below 5 µM. The EC50 in data set [3] was below 1 µM.

`O=C(NCCCCCCO)C(=O)N1CCN(C(=O)c2cc3c(F)cc(F)cc3[nH]2)CC1` [Example 56, 2-(4-(4,6-difluoro-1H-indole-2-carbonyl)piperazin-1-yl)-N-(6-hydroxyhexyl)-2-oxoacetamide] yielded a CC50 at 6 days in data set [1] above 100 µM. The molecule further yielded an IC50 in data set [2] below 5 µM. Also, the EC50 in data set [3] lay in the range of 1 to 10 µM.

With `O=C(NCc1ccoc1)C(=O)N1CCN(C(=O)c2cc3ccccc3[nH]2)CC1` [Example 10, 2-(4-(1H-indole-2-carbonyl)piperazin-1-yl)-N-(furan-3-ylmethyl)-2-oxoacetamide], the 50% cytotoxic concentration (CC50) at 6 days in data set [1] is above 100 µM. Also, the IC50 in data set [2] was below 5 µM. Besides, the EC50 in data set [3] is below 1 µM.

In the case of `O=C(NCC1(CO)CC1)C(=O)N1CCN(C(=O)c2cc3ccccc3[nH]2)CC1` [Example 31, 2-(4-(1H-indole-2-carbonyl)piperazin-1-yl)-N-((1-(hydroxymethyl)cyclopropyl)methyl)-2-oxoacetamide], the CC50 at 6 days in data set [1] was above 100 µM. This molecule had a 50% inhibitory concentration (IC50) in data set [2] of 5 to 10 µM. The EC50 in data set [3] was below 1 µM.

Turning to `O=C(NC1CCOC1)C(=O)N1CCN(C(=O)c2cc3ccccc3[nH]2)CC1` (stereo not drawn) [Example 35, 2-(4-(1H-indole-2-carbonyl)piperazin-1-yl)-2-oxo-N-(tetrahydrofuran-3-yl)acetamide], the CC50 at 6 days in data set [1] was above 100 µM. This molecule showed an IC50 in data set [2] of 5 to 10 µM. Moreover, in data set [3], the EC50 was below 1 µM.

As for `C[C@@H](O)CNC(=O)C(=O)N1CCN(C(=O)c2cc3c(F)cc(F)cc3[nH]2)CC1` [Example 64, (R)-2-(4-(4,6-difluoro-1H-indole-2-carbonyl)piperazin-1-yl)-N-(2-hydroxypropyl)-2-oxoacetamide], the CC50 at 6 days in data set [1] was above 100 µM. In addition, the half-inhibitory concentration (IC50) in data set [2] is below 5 µM. Further, the EC50 in data set [3] is below 1 µM.

Regarding `O=C(NC1CCCC1)C(=O)N1CCN(C(=O)c2cc3cccc(Br)c3[nH]2)CC1` [Example 7, 2-[4-(7-bromo-1H-indole-2-carbonyl)piperazin-1-yl]-N-cyclopentyl-2-oxoacetamide], the 50% cytotoxic concentration (CC50) at 6 days in data set [1] was above 100 µM. This molecule had a half-maximal inhibitory concentration (IC50) in data set [2] of 5 to 10 µM. Also, the EC50 in data set [3] was below 1 µM.

Molecule `CC(O)CCCNC(=O)C(=O)N1CCN(C(=O)c2cc3c(F)cc(F)cc3[nH]2)CC1` (stereo not drawn) [Example 60, 2-(4-(4,6-difluoro-1H-indole-2-carbonyl)piperazin-1-yl)-N-(4-hydroxypentyl)-2-oxoacetamide] had a CC50 at 6 days in data set [1] above 100 µM. The same molecule yielded a half-inhibitory concentration (IC50) in data set [2] below 5 µM. Also, the EC50 in data set [3] was below 1 µM.

For the molecule `CCCCNC(=O)C(=O)N1CCN(C(=O)c2cc3ccccc3[nH]2)CC1` [Example 6, N-butyl-2-[4-(1H-indole-2-carbonyl)piperazin-1-yl]-2-oxoacetamide], in data set [1], the CC50 at 6 days is above 100 µM. The 50% inhibitory concentration (IC50) in data set [2] was below 5 µM. Also, in data set [3], the EC50 was below 1 µM.

`CCCCNC(=O)C(=O)N1CCN(C(=O)c2cc3cccc(Br)c3[nH]2)CC1` [Example 5, 2-[4-(7-bromo-1H-indole-2-carbonyl)piperazin-1-yl]-N-butyl-2-oxoacetamide]: the CC50 at 6 days in data set [1] is above 100 µM. In addition, the IC50 in data set [2] was below 5 µM. Moreover, in data set [3], the EC50 is below 1 µM.

For `C[C@@H](O)CNC(=O)C(=O)N1CCN(C(=O)c2cc3ccccc3[nH]2)CC1` [Example 2, (R)-2-(4-(1H-indole-2-carbonyl)piperazin-1-yl)-N-(2-hydroxypropyl)-2-oxoacetamide], the CC50 at 6 days in data set [1] is above 100 µM. The molecule also had a half-inhibitory concentration (IC50) in data set [2] of 5 to 10 µM. Moreover, the EC50 in data set [3] fell in the range of 1 to 10 µM.

Molecule `COC1(CNC(=O)C(=O)N2CCN(C(=O)c3cc4c(F)cc(F)cc4[nH]3)CC2)CC1` [Example 65, 2-(4-(4,6-difluoro-1H-indole-2-carbonyl)piperazin-1-yl)-N-((1-methoxycyclopropyl)methyl)-2-oxoacetamide] returned a half-maximal cytotoxic concentration (CC50) at 6 days in data set [1] above 100 µM. In addition, the half-inhibitory concentration (IC50) in data set [2] is below 5 µM. Also, the EC50 in data set [3] is below 1 µM.

In data set [1], `O=C(NCC1(O)CCC1)C(=O)N1CCN(C(=O)c2cc3ccccc3[nH]2)CC1` [Example 30, 2-(4-(1H-indole-2-carbonyl)piperazin-1-yl)-N-((1-hydroxycyclobutyl)methyl)-2-oxoacetamide] displayed a half-maximal cytotoxic concentration (CC50) at 6 days above 100 µM. This molecule also registered an IC50 in data set [2] below 5 µM. Moreover, in data set [3], the EC50 is below 1 µM.

As for `O=C(NCCO)C(=O)N1CCN(C(=O)c2cc3ccccc3[nH]2)CC1` [Example 3, 2-(4-(1H-indole-2-carbonyl)piperazin-1-yl)-N-(2-hydroxyethyl)-2-oxoacetamide], in data set [1], the cytotoxic concentration (CC50) at 6 days was above 100 µM. In data set [2], the IC50 is below 100 µM. The EC50 in data set [3] fell in the range of 1 to 10 µM.

In data set [1], `O=C(NCCCO)C(=O)N1CCN(C(=O)c2cc3c(F)cc(F)cc3[nH]2)CC1` [Example 54, 2-(4-(4,6-difluoro-1H-indole-2-carbonyl)piperazin-1-yl)-N-(3-hydroxypropyl)-2-oxoacetamide] gave a CC50 at 6 days above 100 µM. Further, in data set [2], the IC50 was below 5 µM. For the same molecule, the EC50 in data set [3] is below 1 µM.

The values above are taken from US20220227737A1, “NOVEL OXALYL PIPERAZINES ACTIVE AGAINST THE HEPATITIS B VIRUS (HBV)” (AiCuris GmbH & Co. KG, priority 2019, published 2022).
